Experimental data taken from patent publication US20220387457A1 (Qlaris Bio, Inc., priority 2020, published 2022).

Experiments:
acid phosphatase = test: Conversion of CKLP1 by acid phosphatase, LC/MS-MS, pH 7.4; format: biochemical, human; details: up to 2 hours
Method: Conversion of CKLP1 (200 μM-5.0 mM) was examined by LC/MS-MS following incubation at pH 7.4 with either human alkaline phosphatase (ALP), acid phosphatase, or 5′-nucleotidase (2.01 nM-1.0 μM) for up to 2 hours.

[1] = biological target: T1, placenta-derived human alkaline phosphatase (Homo sapiens, UniProt P05187); test: Dose- and time-dependent conversion of CKLP1 to levcromakalim by placenta-derived human alkaline phosphatase, pH 10; format: biochemical
T1 construct: varying concentrations of placenta-derived human alkaline phosphatase; from tissue; host or cells: human placenta
T1 sequence (P05187 23-506): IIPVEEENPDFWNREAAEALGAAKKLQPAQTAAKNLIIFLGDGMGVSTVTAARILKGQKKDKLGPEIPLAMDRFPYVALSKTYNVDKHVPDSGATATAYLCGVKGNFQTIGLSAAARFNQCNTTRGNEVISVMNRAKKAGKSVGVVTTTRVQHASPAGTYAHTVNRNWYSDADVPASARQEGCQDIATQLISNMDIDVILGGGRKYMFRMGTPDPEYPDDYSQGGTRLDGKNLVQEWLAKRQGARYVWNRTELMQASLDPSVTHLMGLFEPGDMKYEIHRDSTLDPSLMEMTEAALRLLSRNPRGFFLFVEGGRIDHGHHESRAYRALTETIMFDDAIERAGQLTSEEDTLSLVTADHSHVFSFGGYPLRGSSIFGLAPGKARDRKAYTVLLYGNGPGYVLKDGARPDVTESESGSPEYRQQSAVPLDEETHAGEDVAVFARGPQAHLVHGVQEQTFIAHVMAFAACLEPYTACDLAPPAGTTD
Method: To activate CKLP1, the phosphate is hydrolyzed from phosphatases to produce leveromakalim, the active moiety that can open (activate) ATP-sensitive potassium channels.
In the first experiment, a fixed concentration of CKLP1 solution was incubated with varying concentrations of placenta-derived human alkaline phosphatase. To accomplish this, placenta-derived human alkaline phosphatase (0.0002 U) in a 100-μL volume was added to each of thirteen 1.5-mL tubes. To each tube, CKLP1 was then added at a fixed concentration [10 mM (0.4%)]. Tubes were inverted twice and incubated in a water bath at 37° C. At each of 13 different time points (0, 1, 2.5, 5, 15, and 30 minutes and at 1, 2, 4, 8, 24, 48, and 72 hours), a single tube was removed, and the reaction was stopped by the addition of 2 volumes (200 μL) of acetonitrile. Samples were stored at −80° C. The experiment was repeated with 10 mM CKLP1 (0.4%) in the presence of placenta-derived human alkaline phosphatase at concentrations of 0.002 U, 0.02 U, and 0.2 U. All assays were performed at pH 10.
In a second experiment, a fixed concentration of placenta-derived human alkaline phosphatase was incubated with varying concentrations of CKLP1. To accomplish this, a fixed concentration of 0.02 U of placenta-derived human alkaline phosphatase in a 100-μL volume was added to each of thirteen 1.5-mL tubes. To each tube, CKLP1 was then added [0.01 mM (0.0004%)]. Tubes were inverted twice and incubated in a water bath at 37° C. At each of 13 different time points (0, 1, 2.5, 5, 15, and 30 minutes and at 1, 2, 4, 8, 24, 48, and 72 hours), a single tube was removed and the reaction was stopped by the addition of 2 volumes (200 μL) of acetonitrile. Samples were stored at −80° C. The experiment was repeated with the same concentration of placenta-derived human alkaline phosphatase (0.02 U) and various concentrations of CKLP1 [0.1 mM (0.004%), 1 mM (0.04%), 10 mM (0.4%), 20 mM (0.8%), and 40 mM (1.6%)]. All assays were performed at pH 10.

[2] = system: normotensive hound dogs (IOP); test: Dose response of CKLP1 on IOP in hound dogs; format: in vivo, hound dog; details: for IOP lowering: 5 consecutive days, vs baseline
Method: In order to determine the optimal topical ocular dose of CKLP1 for subsequent pharmacokinetic studies, hound dogs (n=3) were treated with four different concentrations of CKLP1 (5 mM, 10 mM, 15 mM and 20 mM) once daily for 5 consecutive days. […] No difference in IOP reduction was noted between the 10 and 15 mM doses (p=0.57). To utilize the lowest dose concentration with effective IOP reduction, a 50 μL topical ocular administration of 10 mM CKLP1 was selected as the optimal dose for all subsequent experiments.
IOP was measured three times each day at times that corresponded to 1 hour, 4 hours and 23 hours post treatment. The average of the measurements at three time points on any given day was recorded as the daily IOP.
For the dose response study, baseline IOP measurements were obtained and recorded (three consecutive days prior to treatment). One eye of each dog was treated with a 50 μL topical ocular administration of 5 mM CKLP1 and the contralateral eye was treated with 10 mM CKLP1 once daily for 5 consecutive days. After 5 days, the eyes that received 5 mM CKLP1 was treated with 15 mM CKLP1 while the eye with 10 mM CKLP1 received 20 mM CKLP1. IOPs were measured every day at times corresponding to 1, 4, and 23 hours post treatment. For all experiments, the right eye was used as control while the left eye was selected as the treatment eye.

[3] = system: normotensive hound dogs (IOP); test: Extended-dose (61 days) study of CKLP1 on IOP in hound dogs; format: in vivo, hound dog
Method: (§1) To evaluate the effect of IOP lowering long-term, hound dogs (n=5) were treated with 10 mM CKLP1 in one eye and vehicle (PBS) in the contralateral eye once daily for 61 consecutive days. […] On average, IOP was reduced by 18.9±1.3% (reduction of 3.0±0.5 mmHg; p<0.001) in all five hound dogs over the entire treatment period. Additionally, no significant change in systolic (baseline, 141.0±6.7; treatment, 138.9±9.5; p=0.56) or diastolic (baseline, 80.1±8.9; treatment, 78.1±5.9; p=0.76) blood pressure was observed during the treatment period (FIG. 7B). Hound dogs were also evaluated for eye redness, swelling of the eye or eyelids, unusual discharge from eye and overall food intake.
(§2) For the extended dose study, baseline IOPs were measured three times daily for 5 consecutive days. The average of the three measurements was recorded as the daily IOP and averaged over the 5 days for the final pre-treatment value. Following baseline IOP measurements, dogs (n=5) were treated with 10 mM CKLP1 in one eye, while the contralateral eye received vehicle (PBS). IOP was measured at least three times every week at times corresponding to 1, 4, and 23 hours post treatment. Blood pressure was measured three times each week at the 4 hour post treatment time point.

[4] = system: hound dogs (systemic blood pressure); test: Systemic blood pressure in hound dogs during 61-day topical CKLP1; format: in vivo, hound dog; details: 10 mM CKLP1 topical once daily
Method: as §1, §2

[5] = 10 mM CKLP1 once daily, 61 days, vs vehicle eye

CC1(C)Oc2ccc(C#N)cc2[C@@H](N2CCCC2=O)[C@@H]1OP(=O)(O)O [CKLP1]
conversion of CKLP1 to levcromakalim (acid phosphatase): not
conversion rate of CKLP1 to levcromakalim at 24 hours ([1]; ALP 0.02 U/100 μL, CKLP1 0.01 mM): 26.9%
conversion rate of CKLP1 to levcromakalim at 24 hours ([1]; ALP 0.02 U/100 μL, CKLP1 0.1 mM): 20.0%
conversion rate of CKLP1 to levcromakalim at 24 hours ([1]; ALP 0.02 U/100 μL, CKLP1 1 mM): 5.2%
conversion rate of CKLP1 to levcromakalim at 24 hours ([1]; ALP 0.02 U/100 μL, CKLP1 10 mM): 4.9%
conversion rate of CKLP1 to levcromakalim at 24 hours ([1]; ALP 0.02 U/100 μL, CKLP1 20 mM): 3.2%
conversion rate of CKLP1 to levcromakalim at 24 hours ([1]; ALP 0.02 U/100 μL, CKLP1 40 mM): 1.7%
conversion rate of CKLP1 to levcromakalim at 24 hours ([1]; CKLP1 10 mM, ALP 0.0002 U/100 μL): 0.4%
conversion rate of CKLP1 to levcromakalim at 24 hours ([1]; CKLP1 10 mM, ALP 0.002 U/100 μL): 1.3%
conversion rate of CKLP1 to levcromakalim at 24 hours ([1]; CKLP1 10 mM, ALP 0.02 U/100 μL): 4.8%
conversion rate of CKLP1 to levcromakalim at 24 hours ([1]; CKLP1 10 mM, ALP 0.2 U/100 μL): 13.7%
conversion of CKLP1 to levcromakalim, maximum ([1]; CKLP1 fixed 10 mM (0.4%), ALP 0.0002-0.2 U/100 μL, up to 72 hours, pH 10, 37° C.): ≤ 21%
IOP lowering, all concentrations ([2]; 5 mM, 10 mM, 15 mM and 20 mM, p≤0.01): significant IOP lowering
IOP lowering ([2]; 10 mM CKLP1 topical once daily): 2.3±0.5 mmHg
IOP lowering ([2]; 15 mM CKLP1 topical once daily): 2.5±0.4 mmHg
average IOP in treated eye ([3]; 10 mM CKLP1 once daily, 61 consecutive days): 12.9±2.0 mmHg
eye redness, swelling of the eye or eyelids, unusual discharge from eye, food intake ([3]; 10 mM CKLP1 once daily, 61 days): No notable findings
IOP reduced by [3, 5]: 18.9±1.3%
IOP reduction [3, 5]: 3.0±0.5 mmHg
return of IOP to baseline after CKLP1 administration ([3]; dogs (FIG. 7A), same effect in African green monkeys (FIG. 8A)): greater than 24 hours
IOP lowered by (summary) ([3]; hound dogs): approximately 19%
diastolic blood pressure during treatment ([4]; baseline 80.1±8.9, p=0.76): 78.1±5.9 mmHg
systolic blood pressure during treatment ([4]; baseline 141.0±6.7, p=0.56): 138.9±9.5 mmHg
